Measured values taken from patent publication US20140243415A1, “COMPOUNDS INHIBITING GALECTIN-1 EXPRESSION, CANCER CELL PROLIFERATION, INVASION, AND TUMORIGENESIS” (ONCOETHIX SA, priority 2011, published 2014).

Legend:
wee1 (serine 642) = assay: Western blot of phosphorylated wee1 in SQ20B; format: cell-based, human; conditions: 3 μM OTX-008 for 72 h
Method: Cells were lysed in buffer containing 50 mM HEPES (pH 7.6), 150 mM NaCl, 1% Triton X-100, 2 mM sodium vanadate, 100 mM NaF, and 0.4 mg/ml phenylmethylsulfonyl fluoride. Equal amounts of protein (30 μg/lane) were subjected to SDS-PAGE and transferred to nitrocellulose membranes. Membranes were blocked with 5% milk in 0.05% Tween 20/phosphate-buffered saline and then incubated with the primary antibody overnight. Membranes were then washed and incubated with the secondary antibody conjugated to horseradish peroxidase. Bands were visualized by using the enhanced chemiluminescence Western blotting detection system. Densitometric analysis was performed under conditions that yielded a linear response. The following antibodies were used: anti-p-cdc2 (tyr15), anti-p-wee1 (ser642), anti-p-p44/42 MAPK (thr202/tyr204), anti-p44/42, anti-p-AKT (ser473), anti-AKT, anti-p-S6 (ser235/236) (Cell Signaling, Saint Quentin Yvelines, France), anti-p-PKCα (ser657) (BD Biosciences, Le-Pont-de-Claix, France) and anti-galectin-1 (Abcam, Cambridge, Mass., USA). All antibodies were used at a 1:1000 dilution.
To study the mechanism of OTX-008-induced inhibition of cell proliferation, the effect of OTX-008 on cell cycle in SQ20B cells was examined (FIG. 5B). […] Activation of cdc2 (cdk1) by de-phosphorylation of tyrosine 15 is required for G2/M transition. […]

SQ20B cells = assay: Matrigel invasion assay; format: cell-based, human
Method: FIG. 5. Modulation of the galectin-1/semaphorin-3A/neuropilin system in SQ20B cells. A—Effects of galectin-1 (Gall), semaphorin-3A (Sema3A), lactose, with or without four different concentrations of OTX-008 on SQ20B growth at day 6. Embedded figure: Proliferation assay of SQ20B and SQ-shGAL1. B—In vitro matrigel invasion assay of SQ20B exposed to […] galectin-1, 1 μg/ml semaphorin-3A, 200 ng/ml lactose or 10 μM UO126 with or without 3 μM OTX-008. Embedded figure: In vitro matrigel invasion assay of SQ20B and SQ-shGAL1. Invasion was quantified after 48 h by counting the average number of invaded cells.
8 μm membranes were coated with Matrigel (50 μg). The inserts were placed within a 24-well chamber containing 0.6 ml of RPMI 1640 medium with 20% fetal bovine serum as chemoattractant. 10^5 cells were seeded into the inserts suspended in 0.3 ml of serum-free RPMI. After incubation for 48 h at 37° C., the upper surface of the filter was scraped to remove non-invasive cells. Invasive cells were fixed and stained with a Diff Quik detection Kit (Dade Behring, Paris, France). For quantification, the average number of invading cells per field was assessed by counting 9 random fields under a light microscope (400×).
Galectin-1 may form extracellular lattices counteracting the inhibitory properties of semaphorin-3A on neuropilin-1, eventually leading to the modulation of the vascular endothelial growth factor (VEGFR) and platelet derived growth factor (PDGFR) receptors, fibronectin, and laminin activity SQ20B cells expressed significant mRNA and protein levels of semaphorin-3A and neuropilin-1, PDGFRa&(, VEGF A-D, and VEGFR1-3 (Supplementary FIG. 2A). Thus, SQ20B cells were selected to evaluate the effects of OTX-008 on galectin-1/semaphorin-3A interactions. No difference between SQ20B cells growing in plastic or fibronectin- and laminin-coated plates. […] Galectin-1 and semaphorin-3A induced invasion was inhibited by OTX-008 mimicking the effects of lactose in this model.

chk1, chk2, and cdc25C = assay: chk1, chk2 and cdc25C phosphorylation in SQ20B; format: cell-based, human; conditions: OTX-008-treated SQ20B cells
galectin-1 = target: T1, galectin-1 (Homo sapiens, UniProt P09382); assay: Western blot of galectin-1 in SQ20B cells; format: cell-based; conditions: 3 μM OTX-008, 48 and 72 h exposure
T1 construct: Western Blot of galectin-1 on SQ20B cells treated with 3 μM OTX-008 for 24 h, 48 h and 72 h; endogenous in cells; host or cells: SQ20B (ATCC)
Method: FIG. 3. Effects of OTX-008 on galectin-1 expression and localization. A—Western Blot of galectin-1 on SQ20B cells treated with 3 μM OTX-008 for 24 h, 48 h and 72 h. B and C—Immunofluorescence of galectin-1 on SQ20B cells treated with 3 μM OTX-008 for 24 and 48 h. B—OTX-008 treatment decreases galectin-1 immunostaining in SQ20B cells. C—Galectin-1 translocates into the nucleus after OTX-008 exposure. D—Western Blot of p-AKTser473, AKT, p-S6, p-ERK1/2, ERK and p-PKCα in SQ20B cells treated with 3 μM OTX-008 for 10 min, 1 h, 2 h, 5 h and 24 h.
FIG. 4. OTX-008-induced galectin-1 oxydation and degradation by the proteosome system A—Western Blot of galectin-1 on SQ20B cells treated 48 h with 10 μM N-acetylcysteine (NAC), 55 μM β-mercaptoethanol (βME), 1 mM Tempol and 10 μM co-enzyme Q10 (Q10) with or without 3 μM OTX-008. B—Western Blot of galectin-1 on SQ20B cells treated 48 h with 3 μM OTX-008, pretreated 2 h with proteasome inhibitor Bortezomib (10 nM) and then treated 48 h with 3 μM OTX-008 (BTZ—OTX-008) or treated 48 h with 10 nM Bortezomib+3 μM OTX-008 (BTZ+OTX-008).
Cells were lysed in buffer containing 50 mM HEPES (pH 7.6), 150 mM NaCl, 1% Triton X-100, 2 mM sodium vanadate, 100 mM NaF, and 0.4 mg/ml phenylmethylsulfonyl fluoride. Equal amounts of protein (30 μg/lane) were subjected to SDS-PAGE and transferred to nitrocellulose membranes. […]

T1 sequence (P09382 whole entry): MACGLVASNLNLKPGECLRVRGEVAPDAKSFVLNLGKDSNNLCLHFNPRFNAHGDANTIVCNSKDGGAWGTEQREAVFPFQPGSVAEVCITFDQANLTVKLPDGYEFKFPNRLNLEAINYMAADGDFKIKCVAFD

Structure (SMILES): CN(C)CCNC(=O)COc1c2cccc1Cc1cccc(c1OCC(=O)NCCN(C)C)Cc1cccc(c1OCC(=O)NCCN(C)C)Cc1cccc(c1OCC(=O)NCCN(C)C)C2 [OTX-008]
- wee1 phosphorylation on serine 642 (wee1 (serine 642)): decreased inactivating phosphorylation of wee1
- invasion of SQ20B cells, agent alone (SQ20B cells; 48 h, 1 g/ml galectin-1, 1 μg/ml semaphorin-3A, 10 μM UO126, 3 μM OTX-008): inhibits proliferation and invasion
- galectin-1 and semaphorin-3A induced invasion (SQ20B cells; SQ20B, 3 μM OTX-008, 48 h): inhibited
- chk1, chk2, and cdc25C phosphorylation levels (chk1, chk2, and cdc25C): Mild to no changes
- galectin-1 protein expression (galectin-1): decreased galectin-1 protein expression
